From PubChem BioAssay (NCI)
Values joined by “and” are separate entries in the source; they are usually repeats but may differ in a detail not shown here. Identical values can stand only once.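 Step 1: Grow cells in 96-well plates. Step 2: Expose to compound for 48 hours at 5 concentrations. Step 3: Interpolate endpoints linearly; if unreached, use highest concentration. At the GI50, growth is halved. TGI is the concentration that stops growth completely.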

What was measured:
Assay in all cases: NCI anticancer screen, dose series, 48 h
HCC-2998 colon = tested on: HCC-2998 colon
HOP-92 NSCLC = tested on: HOP-92 NSCLC
IGROV1 ovarian = tested on: IGROV1 ovarian
M14 melanoma = tested on: M14 melanoma
MCF7 breast = tested on: MCF7 breast
NCI-H226 lung = tested on: NCI-H226 lung
OVCAR-3 ovarian = tested on: OVCAR-3 ovarian
PC-3 prostate = tested on: PC-3 prostate
SF-539 CNS = tested on: SF-539 CNS
SW-620 colon = tested on: SW-620 colon

Compound | TGI (HCC-2998 colon) | TGI (HOP-92 NSCLC) | TGI (IGROV1 ovarian) | TGI (M14 melanoma) | TGI (MCF7 breast) | TGI (NCI-H226 lung) | TGI (OVCAR-3 ovarian) | TGI (PC-3 prostate) | TGI (SF-539 CNS) | TGI (SW-620 colon) | GI50 (IGROV1 ovarian) | GI50 (M14 melanoma) | GI50 (OVCAR-3 ovarian)
CC(C)[Si](CC1=CCCCC12C(=O)N(COCC[Si](C)(C)C)c1ccccc12)(C(C)C)C(C)C (stereo not drawn) | > 100 µM | > 100 µM | > 100 µM | > 100 µM | > 100 µM | > 100 µM | > 100 µM | > 100 µM | > 100 µM | > 100 µM |  |  | 
CCOC(=O)CCNC(=O)c1cc(C)cc2c1Oc1c(cc(C)cc1C(=O)NCCC(=O)OCC)S2 | > 100 µM | 87.8 µM | > 100 µM | > 100 µM | > 100 µM | > 100 µM | > 100 µM | > 100 µM | > 100 µM | > 100 µM |  |  | 
COc1ccc(-c2c(C#N)c(N)n(C3OC(COC(C)=O)C(OC(C)=O)C(OC(C)=O)C3OC(C)=O)c(=S)c2C#N)cc1 (stereo not drawn) | > 100 µM and 38.2 µM | 82.8 µM and 49.4 µM | > 100 µM | > 100 µM | > 100 µM and 60.9 µM | > 100 µM | > 100 µM and 32.3 µM | > 100 µM | 67.5 µM and > 100 µM | > 100 µM | > 100 µM and 31.6 µM | > 100 µM and 28.4 µM | 44.4 µM and 15.1 µM
